Assay results reported in patent EP4623911A1, “PI4KB INHIBITORS FOR THE TREATMENT OF FATTY LIVER DISEASE” (ETH Zurich, priority 2024, dated 2025).
Where a SMILES comes first, the peptide text is derived from it. The star is where a group is joined. Cbz = O=C(OCc1ccccc1)*

Columns and labels:
[1] = test system: ATGL; experiment: ATGL protein quantification via immunoblot in HepG2 cell type; assay type: cell-based, human
Procedure: HepG2 cell type was cultured in RPMI medium with 10% FBS and 1% Pen/Strep on collagen-coated plates. Lipofectamine RNAiMAX reagent mediated siRNA (100 nM) was delivered to cells at the suspended state for 48 h. Different from HEK cells, it is not necessary to induce LDs via OA treatment in that there exist LDs in the HepG2 cell type at normal culture medium. The inventors treated HepG2 cells with 10 µM PF04620110 (DGAT1 inhibitor, Sigma) & PF-06424439 (DGAT2 inhibitor, Sigma) for 48 hours or with 5 µg/mL BFA (B5936, Sigma) for 6 hours to deplete LDs and intact Golgi in the HepG2 cell type respectively before glucose deprivation. To deprive glucose in the HepG2 cell type, we either added 2-DG at indicated concentrations to the culture medium or refresh cells with RPMI medium containing different glucose concentrations prepared from the same RPMI medium (Gibco, 11879020).
Adipose depots, liver pieces, differentiated iBAs, HepG2, HEK293T and HEK293-AAV cell types were homogenized in RIPA buffer (50 mM Tris-HCl pH 7.4, 150 mM NaCl, 2 mM EDTA, 1.0% Triton X100, 0.5% sodium deoxycholate) with protease inhibitors (Complete, Roche) and phosphatase inhibitors (Halt phosphatase inhibitor cocktail, ThermoFisher). […] The concentration of WCE was determined by DC Protein Assay (Bio-Rad). […]

[2] = test system: wild-type mice; experiment: Glucose deprivation by 2-DG administration in mice; assay type: in vivo
Procedure: All animal experiments were permitted by the Veterinary office of the Canton of Zurich. Both female and male mice were used in the experiments, and they were housed 2-5 littermates per cage in ventilated cages at standard housing conditions (22°C, 12 h reversed light/dark cycle, dark phase starting at 7 am) with normal chow diet (18% proteins, 4.5% fibers, 4.5% fat, 6.3% ashes, Provimi Kliba SA) and water. Health status of all the mouse lines were monitored regularly based on FELASA guidelines. 8-10 weeks old C57BL/6N male mice were fasted for 24 h or injected with 2-DG (2 g/kg BW) to induce glucose deprivation for different durations. Female ROSA26-LSL-spCas9 mice (The Jackson Lab strain) were intravenously injected with AAV8-U6-Pi4kb gRNAs-TBG-Cre, AAV8-U6-Sacm1l gRNAs-TBG-Cre, AAV8-U6-Cu/7 gRNAs-TBG-Cre and AAV8-U6-Fbxw8 gRNAs-TBG-Cre virus pools to express six gRNAs targeting individual gene and CAS9 in the liver at a dose of 3×10^11 genome copies/mouse. Two weeks later, livers were harvested for protein and RNA extraction after 6 hours fasting. To determine liver TG levels under NCD feeding condition, 4 weeks after AAV administration livers were harvested after 6 hours fasting. Also 4 weeks after AAV administration, the liver specific Cul7&Fbxw8 double knockout mice were injected with 2-DG (2 g/kg BW) to induce 1 hour glucose deprivation prior to liver harvesting for protein extraction.
Adipose depots, liver pieces, differentiated iBAs, HepG2, HEK293T and HEK293-AAV cell types were homogenized in RIPA buffer (50 mM Tris-HCl pH 7.4, 150 mM NaCl, 2 mM EDTA, 1.0% Triton X100, 0.5% sodium deoxycholate) with protease inhibitors (Complete, Roche) and phosphatase inhibitors (Halt phosphatase inhibitor cocktail, ThermoFisher). The homogenates were centrifuged at 12,000×g for 10 min at 4°C to remove debris and collect whole cell extract (WCE). The concentration of WCE was determined by DC Protein Assay (Bio-Rad). After boiling the sample with Lämmeli buffer at 95°C for 5 min, equal amount of proteins was loaded and separated on 12% SDS-PAGE. The proteins were transferred to nitrocellulose membrane and blotted by ATGL (1:1000, Cell Signaling), CGI-58 (1:1000, Proteintech), phospho-HSL(Ser660) (1:1000, Cell Signaling), PLIN1 (1:1000, Cell Signaling), HSL (1:1000, Cell Signaling), γ-tubulin (1:10000, Sigma), FLAG (1:10000, Sigma; 1:1000, Cell Signaling), MGL (1:1000, Abcam), HA (1:1000, Cell signaling), FBXW8 (1:100, Santa Cruz; 1:1000, Sigma), CUL7 (1:100, Santa Cruz), HSP90 (1:1000, Cell Signaling), K48 polyubiquitin (1:1000, Cell signaling), PI4KB (1:1000, Sigma), SACM1L (1:1000, Sigma), AKT1 (1:1000, Cell Signaling), phospho-AKT1(Ser473) (1:1000, Cell Signaling), TGN46 (1:1000, Abcam), MAOA (1:1000, Abcam), PLIN2 (1:1000, Abcam), PMP70 (1:10000, Sigma), Calnexin (1:1000, Cell Signaling), ARF1 (1:1000, Invitrogen), GAPDH (1:1000, Cell Signaling), RAB7 (1:1000, Cell Signaling), alpha 1 Sodium Potassium ATPase (1:1000, Abcam), Cleaved Caspase-3 (1:1000, Cell Signaling), phospho-AMPKα (Thr172) (1:1000, Cell Signaling), AMPKα (1:1000, Cell Signaling) and GM130 (1:1000, Proteintech). The primay antibody signal was visualized by HRP-conjugated secondary antibodies (1:5000, Millipore) and the ImageQuant system (GE Healthcare Life Sciences).
For mouse insulin measurement, plasma was collected at different timepoints after 2-DG administration in wild type mice. 5 µl plasma sample was used to determine insulin levels via Ultra-sensitive mouse insulin ELISA kit (Crystal Chem, Cat# 90080) according to the manufacturer's protocol. The absorbance was measured via Synergy Gen5 Platereader at 450/630 nm. 2 µl plasma sample was used to determine glucose levels via Glucose Assay Kit (Sigma, MAK263) according to the manufacturer's protocol. The absorbance was read at 570 nm in Synergy Gen5 Platereader.
Plasma collected from mice under different conditions was used to determine levels of lipolysis and liver injury. […]

[3] = test system: ATGL; experiment: Blocking of proteasome mediated degradation and autophagy, cellular ATGL protein; assay type: cell-based; details: proteasome blocked by MG132
[4] = 1 hour after 2-DG administration

`O=CC[C@@H](O)[C@H](O)[C@H](O)CO` [2-DG, 2-Deoxy-D-glucose] was tested, and the ATGL protein abundance ([1]; HepG2, 2-DG treatment (50 mM), transcript levels unchanged) was “strongly induced”, the “lipolysis (plasma FFA levels)” value ([2]; 2-DG 2 g/kg BW, 1 h, 6 h and 12 h) was “significantly induced” and the “ATGL levels in livers of wild-type mice” value ([2]; 2-DG for 1 hour, no upregulation in Cul7 and Fbxw8 double knockout) was “upregulation”. For the same compound, the “ATGL protein levels in the liver and iBAT” value ([2]; 1 hour after 2-DG) was “increased”, the “HSL phosphorylation in white adipose tissues” value [2, 4] was “upregulation” and the plasma insulin levels [2, 4] was “reduction”. The “ATGL protein levels in the liver, iBAT, iWAT and gWAT” value ([2]; longer glucose deprivation (6 h, 12 h after 2-DG)) was “further accumulation”.
`C[C@H]1CCC/C=C/[C@@H]2C[C@H](O)C[C@H]2[C@H](O)/C=C/C(=O)O1` [BFA, Brefeldin A] was tested, and the “intracellular ATGL levels upon glucose deprivation” value ([1]; HepG2 after treatment with BFA (5 µg/mL, 6 hours)) was “failed to upregulate”.
For `CC(C)C[C@@H](C=O)NC(=O)[C@H](CC(C)C)NC(=O)[C@H](CC(C)C)NC(=O)OCc1ccccc1` [MG132] (Cbz-Leu-Leu-Leu-aldehyde), the “cellular ATGL protein” value [3] was “accumulation”.
